“And” between values parts separate entries of the source, which are not always exact repeats. Equal values may be shown once.
Assay: Plasma PF-06873600 pharmacokinetics (LC/MS-MS, noncompartmental analysis)
Type: in vivo, human
Procedure: Plasma samples were analyzed for PF-06873600 concentrations at Q2 Solutions using a validated analytic assay in compliance with Pfizer standard operating procedures. PF-06873600 samples were assayed by a validated LC/MS-MS using positive ionization mode. PK parameters were calculated using noncompartmental analysis of plasma concentration–time data.

[1] = Cycle 1 Day 15, Part 1A 1 mg BID IR
[2] = Cycle 1 Day 15, Part 1A 2 mg BID IR
[3] = Cycle 1 Day 15, Part 1A 5 mg BID IR
[4] = Cycle 1 Day 15, Part 1A 10 mg BID IR
[5] = Cycle 1 Day 15, Part 1A 25 mg BID Biomarker IR
[6] = Cycle 1 Day 15, Part 1A 25 mg BID IR
[7] = Cycle 1 Day 15, Part 1A 35 mg BID IR
[8] = Cycle 1 Day 15, Part 1A 35 mg BID Intm 5/2 IR
[9] = Cycle 1 Day 15, Part 1A 50 mg BID IR
[10] = Cycle 1 Day 15, Part 1B 25 mg BID +Ful IR
[11] = Cycle 1 Day 15, Part 1B 25 mg BID +Let IR
[12] = Cycle 1 Day 15, Part 1C MR 30 mg BID long duration
[13] = Day -4, Part 1C single dose 20 mg MR Long Duration
[14] = Day -7, Part 1C single dose 20 mg MR Short Duration

C[C@@]1(O)CCC[C@H]1n1c(=O)c(C(F)F)cc2cnc(NC3CCN(S(C)(=O)=O)CC3)nc21 [PF-06873600]
Cmax, individual value(s) [1]: 10.9 ng/mL | Cmin, individual value(s) [1]: 0.000 ng/mL | Rac (observed accumulation ratio based on AUC), individual value(s) [1]: 1.21 | Tmax, median (range) [1]: 1.00 h | AUCtau, individual value(s) [2]: 51.4 ng·h/mL and 86.9 ng·h/mL | CL/F, individual value(s) [2]: 23.0 L/h and 38.9 L/h | Cmax, individual value(s) [2]: 18.2 ng/mL and 45.4 ng/mL | Rac (observed accumulation ratio based on AUC), individual value(s) [2]: 1.16 | Tmax, median (range) [2]: 1.25 h | Vz/F, individual value(s) [2]: 53.3 L and 98.4 L | t1/2, individual value(s) [2]: 5800 s and 6300 s | Cmin, individual value(s) (Cycle 1 Day 15, Part 1A 2 mg BID IR (both patients 0.000)): 0.000 ng/mL | AUCtau, individual value(s) [3]: 150 ng·h/mL and 483 ng·h/mL | CL/F, individual value(s) [3]: 10.4 L/h and 33.2 L/h | Cmax, individual value(s) [3]: 46.3 ng/mL and 126 ng/mL | Cmin, individual value(s) [3]: 1.19 ng/mL and 23.6 ng/mL | Rac (observed accumulation ratio based on AUC), individual value(s) [3]: 1.53 | Tmax, median (range) [3]: 1.20 h | Vz/F, individual value(s) [3]: 124 L | t1/2, individual value(s) [3]: 9320 s | AUCtau, geometric mean (%CV) [4]: 448.8 (25) ng.h/mL | CL/F, geometric mean (%CV) [4]: 22.28 (24) L/h | Cmax, geometric mean (%CV) [4]: 124.3 (29) ng/mL | Cmin, geometric mean (%CV) [4]: 5.499 (5) ng/mL | Rac (observed accumulation ratio based on AUC), geometric mean (%CV) [4]: 0.7263 | Tmax, median (range) [4]: 2.00 h | Vz/F, geometric mean (%CV) [4]: 72.17 (19) L | t1/2, arithmetic mean±standard deviation [4]: 2.250 h | AUCtau, geometric mean (%CV) [5]: 1010 (40) ng.h/mL | CL/F, geometric mean (%CV) [5]: 24.76 (40) L/h | Cmax, geometric mean (%CV) [5]: 246.4 (40) ng/mL | Cmin, geometric mean (%CV) [5]: 21.28 (130) ng/mL | Rac (observed accumulation ratio based on AUC), geometric mean (%CV) [5]: 1.254 (49) | Tmax, median (range) [5]: 1.92 h | Vz/F, geometric mean (%CV) [5]: 99.62 (35) L | t1/2, arithmetic mean±standard deviation [5]: 2.797 h | AUCtau, geometric mean (%CV) [6]: 1695 (34) ng.h/mL | CL/F, geometric mean (%CV) [6]: 14.78 (34) L/h | Cmax, geometric mean (%CV) [6]: 382.4 (33) ng/mL | Cmin, geometric mean (%CV) [6]: 37.63 ng/mL | Rac (observed accumulation ratio based on AUC), geometric mean (%CV) [6]: 1.045 (17) | Tmax, median (range) [6]: 1.95 h | Vz/F, geometric mean (%CV) [6]: 57.62 (29) L | t1/2, arithmetic mean±standard deviation [6]: 2.733 h | AUCtau, individual value(s) [7]: 2060 ng·h/mL and 2360 ng·h/mL | CL/F, individual value(s) [7]: 14.8 L/h and 17.0 L/h | Cmax, individual value(s) [7]: 362 ng/mL and 399 ng/mL | Cmin, individual value(s) [7]: 52.1 ng/mL and 80.4 ng/mL | Rac (observed accumulation ratio based on AUC), individual value(s) [7]: 0.822 | Tmax, median (range) [7]: 2.01 h | Vz/F, individual value(s) [7]: 70.8 L | t1/2, individual value(s) [7]: 11900 s | AUCtau, geometric mean (%CV) [8]: 1372 (39) ng.h/mL | CL/F, geometric mean (%CV) [8]: 25.54 (39) L/h | Cmax, geometric mean (%CV) [8]: 290.2 (29) ng/mL | Cmin, geometric mean (%CV) [8]: 25.56 (8) ng/mL | Rac (observed accumulation ratio based on AUC), geometric mean (%CV) [8]: 0.8893 | Tmax, median (range) [8]: 2.23 h | Vz/F, geometric mean (%CV) [8]: 99.03 (48) L | t1/2, arithmetic mean±standard deviation [8]: 2.752 h | AUCtau, geometric mean (%CV) [9]: 1607 (34) ng.h/mL | CL/F, geometric mean (%CV) [9]: 21.99 (44) L/h | Cmax, geometric mean (%CV) [9]: 335.2 (22) ng/mL | Cmin, geometric mean (%CV) [9]: 25.63 ng/mL | Rac (observed accumulation ratio based on AUC), geometric mean (%CV) [9]: 1.260 (25) | Tmax, median (range) [9]: 1.98 h | Vz/F, geometric mean (%CV) [9]: 75.41 (17) L | t1/2, arithmetic mean±standard deviation [9]: 2.535 h | AUCtau, geometric mean (%CV) [10]: 1229 (41) ng.h/mL | CL/F, geometric mean (%CV) [10]: 20.35 (41) L/h | Cmax, geometric mean (%CV) [10]: 305.0 (35) ng/mL | Cmin, geometric mean (%CV) [10]: 21.25 ng/mL | Rac (observed accumulation ratio based on AUC), geometric mean (%CV) [10]: 1.191 (29) | Tmax, median (range) [10]: 1.88 h | Vz/F, geometric mean (%CV) [10]: 75.71 (32) L | t1/2, arithmetic mean±standard deviation [10]: 2.508 h | AUCtau, geometric mean (%CV) [11]: 1273 (50) ng.h/mL | CL/F, geometric mean (%CV) [11]: 19.63 (49) L/h | Cmax, geometric mean (%CV) [11]: 276.5 (31) ng/mL | Cmin, geometric mean (%CV) [11]: 13.33 ng/mL | Rac (observed accumulation ratio based on AUC), geometric mean (%CV) [11]: 1.268 (35) | Tmax, median (range) [11]: 2.08 h | Vz/F, geometric mean (%CV) [11]: 80.33 (27) L | t1/2, arithmetic mean±standard deviation [11]: 2.468 h | AUCtau, geometric mean (%CV) [12]: 636.8 (59) ng.h/mL | CL/F, geometric mean (%CV) [12]: 47.08 (59) L/h | Cmax, geometric mean (%CV) [12]: 82.1 ng/mL | Cmin, geometric mean (%CV) [12]: 45.78 (49) ng/mL | Tmax, median (range) [12]: 2.99 (0.000–4.00) h | AUCinf, individual value(s) [13]: 584 ng·h/mL and 713 ng·h/mL | AUClast, geometric mean (%CV) [13]: 469.7 (63) ng.h/mL | CL/F, individual value(s) [13]: 28.0 L/h and 34.3 L/h | Cmax, geometric mean (%CV) [13]: 39 ng/mL | Tmax, median (range) [13]: 12.0 (6.00–12.0) h | Vz/F, individual value(s) [13]: 163 L and 496 L | t1/2, individual value(s) [13]: 14500 s and 36000 s | AUCinf, geometric mean (%CV) [14]: 687.8 (73) ng.h/mL | AUClast, geometric mean (%CV) [14]: 639.7 (67) ng.h/mL | CL/F, geometric mean (%CV) [14]: 29.05 (73) L/h | Cmax, geometric mean (%CV) [14]: 73.7 ng/mL | Tmax, median (range) [14]: 5.33 (2.00–6.00) h | Vz/F, geometric mean (%CV) [14]: 218.1 (50) L | t1/2, arithmetic mean±standard deviation [14]: 6.778 ± 5.7890 h | Part of dosing interval with mean steady-state PK concentrations above predicted effective concentrations (Ceff) (RDE 25 mg twice daily, Ceff from HCC1428, HCC1806, and Ovar3 models): at least 70 % of the dosing interval | Criterion of concentrations above Ceff for at least 70% of the dosing interval (RDE 25 mg twice daily, Ceff from the MCF7 model): not achieved | Plasma exposures, monotherapy vs combination therapy with fulvestrant or letrozole (in vivo): largely comparable

— publication PMC12260505, “First-in-Human Phase I/IIa Study of the First-in-Class CDK2/4/6 Inhibitor PF-06873600 Alone or with Endocrine Therapy in Patients with Breast Cancer” (Clinical Cancer Research, 2025)
